# Reference: US20230399319A1, “Acylsulfamide Compound and Pharmaceutical Use Therefor” (Japan Tobacco Inc., priority 2019, published 2023)
# Target: NLRP3 inflammasome (Homo sapiens (Human), UniProt Q96P20)
# Assay: Evaluation of NLRP3 inflammasome inhibitory activity (inhibition of IL-1β production in THP1-Null cells, LPS/Nigericin)
# Settings: not given
# Chain of NLRP3 inflammasome (Q96P20 whole entry): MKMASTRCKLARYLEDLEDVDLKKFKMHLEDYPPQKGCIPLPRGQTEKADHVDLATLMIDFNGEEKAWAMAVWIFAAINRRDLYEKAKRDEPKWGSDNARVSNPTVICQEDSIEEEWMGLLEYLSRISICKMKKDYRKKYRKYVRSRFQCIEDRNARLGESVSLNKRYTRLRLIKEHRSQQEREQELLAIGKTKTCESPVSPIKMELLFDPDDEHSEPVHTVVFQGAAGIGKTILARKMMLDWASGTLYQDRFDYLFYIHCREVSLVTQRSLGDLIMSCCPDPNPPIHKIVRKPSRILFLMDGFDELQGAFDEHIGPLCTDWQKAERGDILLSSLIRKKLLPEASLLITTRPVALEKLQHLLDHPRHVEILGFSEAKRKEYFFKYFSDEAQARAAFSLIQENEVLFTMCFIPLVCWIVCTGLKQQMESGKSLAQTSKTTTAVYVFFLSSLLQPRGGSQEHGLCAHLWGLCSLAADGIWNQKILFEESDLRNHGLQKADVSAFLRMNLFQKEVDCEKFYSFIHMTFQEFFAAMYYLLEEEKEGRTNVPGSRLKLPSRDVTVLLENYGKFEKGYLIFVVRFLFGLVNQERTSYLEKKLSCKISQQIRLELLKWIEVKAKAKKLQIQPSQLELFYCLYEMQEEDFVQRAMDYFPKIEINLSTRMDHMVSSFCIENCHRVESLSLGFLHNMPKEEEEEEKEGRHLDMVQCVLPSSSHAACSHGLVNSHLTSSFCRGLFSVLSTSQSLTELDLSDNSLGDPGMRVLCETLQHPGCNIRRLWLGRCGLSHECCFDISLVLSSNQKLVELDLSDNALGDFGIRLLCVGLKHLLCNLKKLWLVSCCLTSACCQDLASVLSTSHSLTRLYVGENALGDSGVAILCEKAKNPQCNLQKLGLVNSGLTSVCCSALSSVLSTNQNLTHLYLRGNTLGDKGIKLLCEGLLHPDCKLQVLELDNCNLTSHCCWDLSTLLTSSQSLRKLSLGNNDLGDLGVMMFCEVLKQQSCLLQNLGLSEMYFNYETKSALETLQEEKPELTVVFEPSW
row,Compound,IC50
1,CCS(=O)(=O)N1CCCN(S(=O)(=O)NC(=O)c2coc(Nc3cc(C(F)(F)F)ccc3C)n2)CC1C (racemic) [Example 2-242],45 nM
2,COCC1CN(S(=O)(=O)NC(=O)c2coc(Nc3cc(C(F)(F)F)ccc3C)n2)CCCO1 (racemic) [Example 2-091],38 nM
3,CC1COCCN1S(=O)(=O)NC(=O)c1cnc(Nc2c3c(cc4c2CCC4)CCC3)o1 (racemic) [Example 5],< 30 nM
4,COC1COCCN(S(=O)(=O)NC(=O)c2coc(Nc3cc(C(F)(F)F)c(F)cc3C)n2)C1 (racemic) [Example 2-244],51 nM
5,Cc1ccc(C(C)C)cc1Nc1nc(C(=O)NS(=O)(=O)N2CCOCC2C)co1 (racemic) [Example 2-081],94 nM
6,CCCCS(=O)(=O)N1CCN(S(=O)(=O)NC(=O)c2coc(Nc3cc(C(F)(F)F)ccc3C)n2)CC(F)C1 (racemic) [Example 2-197],17 nM
7,COC1CN(S(=O)(=O)CCCF)CCN(S(=O)(=O)NC(=O)c2coc(Nc3cc(C(F)(F)F)ccc3C)n2)C1 (racemic) [Example 2-205],36 nM
8,CCC1CN(S(=O)(=O)NC(=O)c2coc(Nc3cc(C(F)(F)F)ccc3C)n2)CCO1 (racemic) [Example 2-006],31 nM
9,O=C(NS(=O)(=O)N1CC2CC1CO2)c1coc(Nc2c3c(c(Cl)c4c2CCC4)CCC3)n1 (racemic) [Example 56],46 nM
10,Cc1ccc(C(F)(F)F)cc1Nc1nc(C(=O)NS(=O)(=O)N2CCC(O)C2)co1 (racemic) [Example 29],120 nM
11,COC1CCCN(S(=O)(=O)NC(=O)c2coc(Nc3cc(C(F)(F)F)ccc3C)n2)C1 (racemic) [Example 2-159],61 nM
12,CN(C1CCOC1)S(=O)(=O)NC(=O)c1cnc(Nc2c3c(cc4c2CCC4)CCC3)o1 (racemic) [Example 24],160 nM
13,Cc1ccc(C(F)(F)F)cc1Nc1nc(C(=O)NS(=O)(=O)N2CCOCC2CO)co1 (racemic) [Example 2-045],180 nM
14,CC1COCCN1S(=O)(=O)NC(=O)c1coc(Nc2c3c(cc4c2CCC4)CCC3)n1 (racemic) [Example 25],51 nM
15,Cc1ccc(C(F)(F)F)cc1Nc1nc(C(=O)NS(=O)(=O)N2CCOCCC2C)co1 (racemic) [Example 2-058],54 nM
16,COC1COCCN(S(=O)(=O)NC(=O)c2coc(Nc3cc(C(C)C)ccc3C)n2)C1 (racemic) [Example 2-294],37 nM
17,COCC1CN(S(=O)(=O)NC(=O)c2coc(Nc3c4c(c(Cl)c5c3CCC5)CCC4)n2)CCO1 (racemic) [Example 38],73 nM
18,Cc1ccc(C(F)(F)F)cc1Nc1nc(C(=O)NS(=O)(=O)N2CCCOCC2C)co1 (racemic) [Example 2-231],89 nM
19,CCCS(=O)(=O)N1CCN(S(=O)(=O)NC(=O)c2coc(Nc3cc(C(F)(F)F)ccc3C)n2)CC(F)C1 (racemic) [Example 2-222],30 nM
20,CCC1CN(S(=O)(=O)NC(=O)c2cnc(Nc3c4c(cc5c3CCC5)CCC4)o2)CCO1 (racemic) [Example 16],< 30 nM
21,CC(=O)N(C)C1CCCN(S(=O)(=O)NC(=O)c2coc(Nc3cc(C(F)(F)F)ccc3C)n2)CC1 (racemic) [Example 2-232],30 nM

# Same assay, conditions: IL-1β production in THP1-Null cells, PMA/LPS primed, Nigericin 7.5 μmol/L
row,Compound,IC50
1,Cc1ccc(C(F)(F)F)cc1Nc1nc(C(=O)NS(=O)(=O)N2CCOCC2)co1 [Example 70],< 30 nM
2,CO[C@@H]1CCN(S(=O)(=O)NC(=O)c2coc(Nc3c4c(c(Cl)c5c3CCC5)CCC4)n2)C1 [Example 36],92 nM
3,Cc1ccc2c(c1Nc1nc(C(=O)NS(=O)(=O)N(C)C)co1)CCC2 [Example 69],150 nM
4,CN(C)S(=O)(=O)C1CCN(S(=O)(=O)NC(=O)c2coc(Nc3c4c(c(F)c5c3CCC5)CCC4)n2)CC1 [Example 66],< 30 nM
5,"2-((8-chloro-1,2,3,5,6,7-hexahydro-s-indacen-4-yl)amino)-N—(N,N-dimethylsulfamoyl)oxazole-4-carboxamide [Example 23]",< 30 nM
6,CN(C)S(=O)(=O)NC(=O)c1coc(Nc2c3c(c(F)c4c2CCC4)CCC3)n1 [Example 27],58 nM
7,Cc1ccc(C(F)(F)F)cc1Nc1nc(C(=O)NS(=O)(=O)N2CC3CCC(C2)O3)co1 [Example 77],56 nM
8,CC(=O)N1CCN(S(=O)(=O)NC(=O)c2coc(Nc3c4c(c(Cl)c5c3CCC5)CCC4)n2)CC1 [Example 54],170 nM
9,O=C(NS(=O)(=O)N1CCS(=O)(=O)CC1)c1coc(Nc2c3c(c(Cl)c4c2CCC4)CCC3)n1 [Example 42],970 nM
10,CS(=O)(=O)C1CCN(S(=O)(=O)NC(=O)c2coc(Nc3c4c(c(F)c5c3CCC5)CCC4)n2)CC1 [Example 58],39 nM
11,Cc1cc(Nc2nc(C(=O)NS(=O)(=O)N3CCOC(CS(=O)(=O)C(C)C)CC3)co2)c(C)cc1F (stereo not shown) [Example 3-004],26 nM
12,O=C(NS(=O)(=O)N1CCCC1)c1coc(Nc2c3c(cc4c2CCC4)CCC3)n1 [Example 22],< 30 nM
13,CC(C)N(C)S(=O)(=O)NC(=O)c1coc(Nc2c3c(cc4c2CCC4)CCC3)n1 [Example 21],43 nM
14,"COCCOC[C@@H]1CCN(S(=O)(=O)NC(=O)c2coc(Nc3cc(C)c(F)cc3C)n2)CCO1 [Example 3-005, (S)-2-((4-fluoro-2,5-dimethylphenyl)amino)-N-((7-((2-methoxyethoxy)methyl)-1,4-oxazepan-4-yl)sulfonyl)oxazole-4-carboxamide]",40 nM

# Same assay, conditions: inhibition of IL-1β production in THP1-Null cells
row,Compound,IC50
1,Cc1ccc(C(F)(F)F)cc1Nc1nc(C(=O)NS(=O)(=O)N2CCCN(S(=O)(=O)CCC(F)(F)F)CC2)co1 [Example 2-130],20 nM
2,COCC1CCN(S(=O)(=O)NC(=O)c2coc(Nc3cc(C)ccc3C(C)C)n2)CCO1 (stereo not shown) [Example 2-309],39 nM
3,Cc1ccc(C2CC2)cc1Nc1nc(C(=O)NS(=O)(=O)N(C)C)co1 [Example 2-035],220 nM
4,CC(C)c1ccc(C(F)F)cc1Nc1nc(C(=O)NS(=O)(=O)N(C)C)co1 [Example 2-105],86 nM
5,CCOCC1CCN(S(=O)(=O)NC(=O)c2coc(Nc3nn(C(C)C)cc3C(C)C)n2)CCO1 (stereo not shown) [Example 2-344],65 nM
6,Cc1ccc(C2CC2)cc1Nc1nc(C(=O)NS(=O)(=O)N2CCOCC2)co1 [Example 2-001],63 nM
7,Cc1cc(C#N)c(C(F)(F)F)cc1Nc1nc(C(=O)NS(=O)(=O)N2CCCOCC2)co1 [Example 2-142],6300 nM
8,Cc1ccc(C(C)C)cc1Nc1nc(C(=O)NS(=O)(=O)N2CCCOCC2)cs1 [Example 2-056],< 30 nM
9,CCCS(=O)(=O)N1CCCN(S(=O)(=O)NC(=O)c2coc(Nc3cn(C(C)C)nc3C(C)C)n2)CC1 [Example 2-160],170 nM
10,Cc1ccc(C(C)(F)F)cc1Nc1nc(C(=O)NS(=O)(=O)N2CCOCC2)co1 [Example 2-015],38 nM
11,Cc1ccc(C(C)C)cc1Nc1nc(C(=O)NS(=O)(=O)N2CCOCC2(C)C)co1 [Example 2-098],250 nM
12,CCC(=O)N1CCCN(S(=O)(=O)NC(=O)c2coc(Nc3cc(C(F)(F)F)ccc3C)n2)CC1 [Example 2-102],50 nM
13,COC1CN(S(=O)(=O)NC(=O)c2coc(Nc3cc(C(F)(F)F)ccc3C)n2)C1 [Example 2-057],570 nM
14,CC(C)c1ccc(OC(F)(F)F)c(Nc2nc(C(=O)NS(=O)(=O)N3CCCOCC3)co2)c1 [Example 2-175],400 nM
15,CCCCC(=O)N1CCCN(S(=O)(=O)NC(=O)c2coc(Nc3cc(C(F)(F)F)ccc3C)n2)CC1 [Example 2-182],10 nM
16,CC(C)c1ccc2c(c1Nc1nc(C(=O)NS(=O)(=O)N(C)C)co1)CCC2 [Example 2-118],260 nM

row,Compound,IC50
1,CC(C)c1ccc2c(c1Nc1nc(C(=O)NS(=O)(=O)N3CCCOCC3)co1)CCC2 [Example 2-119],96 nM
2,Cc1ccc(C(F)(F)F)cc1Nc1nc(C(=O)NS(=O)(=O)N2CCCN(S(=O)(=O)CC(C)C)CC2)co1 [Example 2-128],20 nM
3,Cc1ccc(C2CC2)cc1Nc1nc(C(=O)NS(=O)(=O)N2CCCOCC2)co1 [Example 2-042],56 nM
4,Cc1ccc(Br)cc1Nc1nc(C(=O)NS(=O)(=O)N2CCCOCC2)co1 [Example 2-140],74 nM
5,Cc1ncc(C(F)(F)F)cc1Nc1nc(C(=O)NS(=O)(=O)N2CCCOCC2)co1 [Example 2-104],1800 nM
6,CC(C)n1cc(Nc2nc(C(=O)NS(=O)(=O)N3CCCOCC3)co2)c(C2CC2)n1 [Example 2-195],1400 nM
7,CC(C)n1cc(Nc2nc(C(=O)NS(=O)(=O)N3CCCOCC3)co2)c(C(F)(F)F)n1 [Example 2-169],1700 nM
8,Cc1ccc(C(C)(C)C)cc1Nc1nc(C(=O)NS(=O)(=O)N(C)C)co1 [Example 2-069],66 nM
9,CCCS(=O)(=O)N1CCCN(S(=O)(=O)NC(=O)c2coc(Nc3cc(C)ccc3CC)n2)CC1 [Example 2-257],22 nM
10,CCCS(=O)(=O)N1CCCN(S(=O)(=O)NC(=O)c2coc(Nc3cc(C(F)F)ccc3C)n2)CC1 [Example 2-270],9.8 nM
11,CCCS(=O)(=O)N1CCCN(S(=O)(=O)NC(=O)c2coc(Nc3cc(C)cc(C)c3C)n2)CC1 [Example 2-288],120 nM
12,Cc1ccc(C(F)(F)F)cc1Nc1nc(C(=O)NS(=O)(=O)N2CCOC(CO)CC2)co1 (stereo not shown) [Example 2-272],27 nM
13,COCCN(C(C)C)S(=O)(=O)NC(=O)c1coc(Nc2cc(C(F)(F)F)ccc2C)n1 [Example 2-048],< 30 nM
14,CCc1ccc(C(F)(F)F)cc1Nc1nc(C(=O)NS(=O)(=O)N2CCCOCC2)co1 [Example 2-059],< 30 nM
15,Cc1ccc(C(C)(F)F)cc1Nc1nc(C(=O)NS(=O)(=O)N(C)C)co1 [Example 2-013],64 nM

# Same assay, conditions: read-out: % inhibition at 3 μM
row,Compound,inhibition at 3 µM
1,COCCCc1cc(C)c(Nc2nc(C(=O)NS(=O)(=O)N(C)C)co2)cc1C(C)C [Example 2-238],11%
2,Cc1cnc(C)c(Nc2nc(C(=O)NS(=O)(=O)N(C)C)co2)n1 [Example 2-086],17%
3,CC(C)c1nn2c(c1Nc1nc(C(=O)NS(=O)(=O)N3CCCOCC3)co1)OCCC2C (stereo not shown) [Example 2-248],44%
4,Cc1ccc(C)c(Nc2nc(C(=O)NS(=O)(=O)N3CCC[C@H]3CN3CCCC3)co2)c1 [Example 2-321],-11%
